US10590113B2, “6-hydroxy-4-oxo-1,4-dihydropyrimidine-5-carboxamides as APJ agonists” (priority 2016, dated 2020)
pEC50: −log10 of the molar value.

target: T1, human APJ receptor (Homo sapiens, UniProt P35414); assay: Intracellular cAMP Accumulation Assay (APJ hcAMP, HTRF); format: cell-based; conditions: human APJ, cAMP accumulation; potency range class; read-out: hAPJ cAMP EC50 Potency range
T1 construct: expressed in transfected cells; host or cells: HEK293
T1 sequence (P35414 1-380): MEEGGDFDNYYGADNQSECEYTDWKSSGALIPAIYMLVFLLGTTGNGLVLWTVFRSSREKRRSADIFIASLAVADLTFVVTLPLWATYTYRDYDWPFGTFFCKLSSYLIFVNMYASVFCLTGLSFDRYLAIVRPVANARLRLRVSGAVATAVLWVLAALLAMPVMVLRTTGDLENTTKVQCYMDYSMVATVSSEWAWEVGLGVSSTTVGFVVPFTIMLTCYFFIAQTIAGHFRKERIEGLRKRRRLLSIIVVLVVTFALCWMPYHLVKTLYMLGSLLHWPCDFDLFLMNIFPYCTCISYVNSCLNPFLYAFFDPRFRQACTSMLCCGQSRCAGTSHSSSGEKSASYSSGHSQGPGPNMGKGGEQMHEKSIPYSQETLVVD
Method in brief: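 Stably transfected HEK293 cells (5,000/well) incubated 30 min at room temperature with serially diluted compound, […] and 2 μM forskolin. cAMP measured by HTRF after 60 min with detection reagents, quantified against a cAMP standard curve; EC50 from variable-slope sigmoidal fit of inhibition of forskolin-stimulated cAMP.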

| pEC50 | Structure (SMILES) |
| --- | --- |
| 7.00 to 8.00 | CCCc1nc(O)c(C(=O)N2CC[C@H](c3ccccc3)C2)c(=O)n1[C@@H](COC)c1ccccc1 [Example 329, 6-hydroxy-3-[(1R)-2-methoxy-1-phenylethyl]-5-[(3R)-3-phenylpyrrolidine-1-carbonyl]-2-propyl-3,4-dihydropyrimidin-4-one] |
| 7.00 to 8.00 | CCCc1nc(=O)c(C(=O)N2CC[C@@H](c3ccccc3)C2)c(O)n1[C@@H](COC)c1ccccc1 [Example 330, 6-hydroxy-3-[(1R)-2-methoxy-1-phenylethyl]-5-[(3S)-3-phenylpyrrolidine-l-carbonyl]-2-propyl-3,4-dihydropyrimidin-4-one] |
| 8.00 to 11.00 | CCCCc1nc(=O)c(C(=O)N2CCC(c3ncc(F)cc3F)C2)c(O)n1[C@@H](COC)c1ccccc1 (stereo partly drawn) [Example 349, 2-butyl-5-[3-(3,5-difluoropyridin-2-yl)pyrrolidine-1-carbonyl]-6-hydroxy-3-[(1R)-2-methoxy-1-phenylethyl]-3,4-dihydropyrimidin-4-one] |
| 8.00 to 11.00 | CCCCc1nc(=O)c(C(=O)N2CCC(c3ncc(Cl)cc3F)C2)c(O)n1[C@@H](COC)c1ccccc1 (stereo partly drawn) [Example 350, 2-butyl-5-[3-(5-chloro-3-fluoropyridin-2-yl)pyrrolidine-1-carbonyl]-6-hydroxy-3-[(1R)-2-methoxy-1-phenylethyl]-3,4-dihydropyrimidin-4-one] |
| 8.00 to 11.00 | CCCCc1nc(=O)c(C(=O)N2CCC(c3ncc(F)cc3F)C2)c(O)n1[C@H](c1cccc(C#N)c1)C1CC1 (stereo partly drawn) [Example 351, 3-[(S)-{2-butyl-5-[3-(3,5-difluoropyridin-2-yl)pyrrolidine-1-carbonyl]-4-hydroxy-6-oxo-1,6-dihydropyrimidin-1-yl}(cyclopropyl)methyl]benzonitrile] |
| 8.00 to 11.00 | CCCCc1nc(=O)c(C(=O)N2CCN(Cc3cccc(Cl)c3Cl)CC2)c(O)n1-c1c(OC)cccc1OC [Example 355, 2-butyl-5-(4-(2,3-dichlorobenzyl)piperazine-1-carbonyl)-1-(2,6-dimethoxyphenyl)-6-hydroxypyrimidin-4(1H)-one0.011] |

same assay, conditions: read-out: hAPJ cAMP EC50 Potency range

| Structure (SMILES) | pEC50 |
| --- | --- |
| CCCCc1nc(=O)c(C(=O)N2CCC(Oc3ccc(C(C)(C)C)cc3)CC2)c(O)n1-c1c(OC)cccc1OC [Example 381, 2-butyl-5-(4-(4-(tert-butyl)phenoxy)piperidine-1-carbonyl)-1-(2,6-dimethoxyphenyl)-6-hydroxypyrimidin-4(1H)-one] | 7.00 to 8.00 |
| CCCCc1nc(=O)c(C(=O)N2CCC(Oc3cccc(F)c3F)CC2)c(O)n1-c1c(OC)cccc1OC [Example 387, 2-butyl-5-(4-(2,3-difluorophenoxy)piperidine-1-carbonyl)-1-(2,6-dimethoxyphenyl)-6-hydroxypyrimidin-4(1H)-one] | 8.00 to 11.00 |
| CCCCc1nc(=O)c(C(=O)N2CCN(Cc3cccc(F)c3F)CC2)c(O)n1-c1c(OC)cccc1OC [Example 388, 2-butyl-5-(4-(2,3-difluorobenzyl)piperazine-1-carbonyl)-1-(2,6-dimethoxyphenyl)-6-hydroxypyrimidin-4(1H)-one] | 8.00 to 11.00 |

Results, then the compound that gave them:

| pEC50 | Structure (SMILES) |
| --- | --- |
| 8.00 to 11.00 | CCCCc1nc(=O)c(C(=O)N2CCC(Oc3ccc(Cl)cc3)CC2)c(O)n1-c1c(OC)cccc1OC [Example 373, 2-butyl-5-(4-(4-chlorophenoxy)piperidine-1-carbonyl)-1-(2,6-dimethoxyphenyl)-6-hydroxypyrimidin-4(1H)-one] |
| 8.00 to 11.00 | CCOCc1nc(=O)c(C(=O)N2CCC(Cc3ccc(F)cc3)CC2)c(O)n1-c1c(OC)cccc1OC [Example 374, 1-(2,6-dimethoxyphenyl)-2-(ethoxymethyl)-5-(4-(4-fluorobenzyl)piperidine-1-carbonyl)-6-hydroxypyrimidin-4(1H)-one] |
| 8.00 to 11.00 | CCOCc1nc(=O)c(C(=O)N2CCC(Cc3ccc(Cl)cc3)CC2)c(O)n1-c1c(OC)cccc1OC [Example 375, 5-(4-(4-chlorobenzyl)piperidine-1-carbonyl)-1-(2,6-dimethoxyphenyl)-2-(ethoxymethyl)-6-hydroxypyrimidin-4(1H)-one] |
| 8.00 to 11.00 | CCOCc1nc(=O)c(C(=O)N2CC[C@H](OCc3ccccc3)C2)c(O)n1-c1c(OC)cccc1OC [Example 376, (S)-5-(3-(benzyloxy)pyrrolidine-1-carbonyl)-1-(2,6-dimethoxyphenyl)-2-(ethoxymethyl)-6-hydroxypyrimidin-4(1H)-one] |
| 8.00 to 11.00 | CCOCc1nc(=O)c(C(=O)N2CCC(Oc3ccc(Cl)cc3)CC2)c(O)n1-c1c(OC)cccc1OC [Example 377, 5-(4-(4-chlorophenoxy)piperidine-1-carbonyl)-1-(2,6-dimethoxyphenyl)-2-(ethoxymethyl)-6-hydroxypyrimidin-4(1H)-one] |
| 8.00 to 11.00 | CCOCc1nc(=O)c(C(=O)N2CCC(Oc3cc(F)ccc3Cl)CC2)c(O)n1-c1c(OC)cccc1OC [Example 378, 5-(4-(2-chloro-5-fluorophenoxy)piperidine-1-carbonyl)-1-(2,6-dimethoxyphenyl)-2-(ethoxymethyl)-6-hydroxypyrimidin-4(1H)-one] |
| 8.00 to 11.00 | CCOCc1nc(=O)c(C(=O)N2CCC(c3ccccc3F)CC2)c(O)n1-c1c(OC)cccc1OC [Example 379, 1-(2,6-dimethoxyphenyl)-2-(ethoxymethyl)-5-(4-(2-fluorophenyl)piperidine-1-carbonyl)-6-hydroxypyrimidin-4(1H)-one] |
| 8.00 to 11.00 | CCCCc1nc(=O)c(C(=O)N2CCC(Cc3ccc(C(F)(F)F)cc3)CC2)c(O)n1-c1c(OC)cccc1OC [Example 380, 2-butyl-1-(2,6-dimethoxyphenyl)-6-hydroxy-5-(4-(4-(trifluoromethyl)benzyl)piperidine-1-carbonyl)pyrimidin-4(1H)-one] |
| 8.00 to 11.00 | CCCCc1nc(=O)c(C(=O)N2CCC(Oc3ccccc3Cl)CC2)c(O)n1-c1c(OC)cccc1OC [Example 382, 2-butyl-5-(4-(2-chlorophenoxy)piperidine-1-carbonyl)-1-(2,6-dimethoxyphenyl)-6-hydroxypyrimidin-4(1H)-one] |
| 8.00 to 11.00 | CCCCc1nc(=O)c(C(=O)N2CCC(Oc3cccc(F)c3Cl)CC2)c(O)n1-c1c(OC)cccc1OC [Example 383, 2-butyl-5-(4-(2-chloro-3-fluorophenoxy)piperidine-1-carbonyl)-1-(2,6-dimethoxyphenyl)-6-hydroxypyrimidin-4(1H)-one] |
| 8.00 to 11.00 | CCCCc1nc(=O)c(C(=O)N2CCC(Oc3cc(F)ccc3Cl)CC2)c(O)n1-c1c(OC)cccc1OC [Example 385, 2-butyl-5-(4-(2-chloro-5-fluorophenoxy)piperidine-1-carbonyl)-1-(2,6-dimethoxyphenyl)-6-hydroxypyrimidin-4(1H)-one] |
| 8.00 to 11.00 | CCCCc1nc(=O)c(C(=O)N2CCC(Oc3cc(F)cc(F)c3Cl)CC2)c(O)n1-c1c(OC)cccc1OC [Example 386, 2-butyl-5-(4-(2-chloro-3,5-difluorophenoxy)piperidine-1-carbonyl)-1-(2,6-dimethoxyphenyl)-6-hydroxypyrimidin-4(1H)-one] |
